We go through 8 molecules from paper PMC6368365, “Didehydro-Cortistatin A Inhibits HIV-1 by Specifically Binding to the Unstructured Basic Region of Tat” (mBio, 2019).

Peptide text beside a SMILES is read from it. * marks the point of attachment. Cbz = O=C(OCc1ccccc1)*

Data set [1] can be described thus: MTT viability assay, 72 h. The data set is classed as cell-based. To be noted: human, HeLa-CD4-LTR-LacZ cells, mean ± SD, n = 2 to 3. On the procedure:
The assay was performed with MTT [3-(4,5-dimethyl-2-thiazolyl)-2,5-diphenyl-2H-tetrazolium bromide] as described in reference.

The test system of another data set is NL4-3 strain. As to the kind of experiment: HIV-1 NL4-3 infection of HeLa-CD4-LTR-LacZ reporter cells, LacZ measured 72 h later. Format: cell-based. To be noted: Human immunodeficiency virus 1, NL43; HeLa-CD4-LTR-LacZ cells infected with NL4-3, LacZ at 72 h; mean ± SD, n = 2 to 3; read-out: IC50. An excerpt: To understand the structure-function relationship of the dCA molecule with respect to our structural model, we synthesized and characterized the ability of 11 analogs of dCA to inhibit HIV infection (Table 2). […] We used HeLa-CD4 cells stably expressing the HIV-1 5′ LTR driving β-galactosidase production (HeLa-CD4-LTR-LacZ cells) as a reporter for the infection with isolate NL4-3. Table 2 summarizes the IC50, 50% cytotoxic concentration (CC50), and therapeutic index (TI) for each compound. The loss of dCA activity was directly associated with the positioning and the chemical environment of the azote on the F ring and the presence of oxygen in ring B. Moreover, the E-F “skeleton angle” and the distance between the A-B-C-D and F rings affected the activity by more than 50-fold (analogs 7 and 10).
The activity of Tat in HeLa-CD4-LTR-Luc and OM10.1 cells was verified by a transactivation assay as described in reference. In HeLa-CD4-LTR-LacZ cells, the assay was performed as described in reference. A detailed protocol is provided in Text S1.
Transactivation assay. In HeLa-CD4-LTR-Luc cells and OM10.1 cells. The activity of Tat was verified by a transactivation assay as previously reported (13). Briefly, HeLa-CD4-LTR-Luc cells and OM10.1 were plated at 1×10^5 and 8x10^5 cells per well of a 6-well plate respectively. The following day, recombinant Tat protein was added to the cells in culture media without serum and in the presence of 100 μM of Chloroquine. Five hours later, serum was added at 5 % to the culture media. Cells were lysed 24 hrs later, protein concentration determined by Bradford assay and luciferase activity was measured for HeLa-CD4-LTR-Luc cells. Results corresponding to luciferase activity per protein concentration of each sample are shown as relative light unit (RLU). As for the OM10.1 cells, RNA was extracted using the RNA extraction kit (Qiagen) and DNA contamination was removed using Turbo-DNAse kit (Ambion). First-strand cDNA was synthesized using SuperscriptIII^TM first-strand cDNA kit (Invitrogen) and random hexamers as first-strand primers. qRT-PCR was performed with an aliquot of cDNA as template, using LightCycler? 480 SYBR Green I Master in a 20 µL reaction according to the manufacturer’s instructions. The mRNAs from each sample were used as negative control. Primer sequences for GAPDH (13) and all viral mRNAs as previously described (59). In HeLa-CD4-LTR-LacZ cells. It was performed as previously described (10). Briefly, cells were plated at 1×10^4 cells per well of a 96-well plate. Twenty-four hrs later HIV-1 NL4-3 strain was added in the presence of testing compound or DMSO. Seventy-two hrs post infection, cells were disrupted in lysis buffer (60 mM Na2HPO4, 40 mM NaH2PO4, 10 mM KCl, 10 mM MgSO4, 2.5 mM EDTA, 50 mM ß-mercaptoethanol, 0.125 % Nonidet P-40) and a quantitative chlorophenol red-ß-D-galactopyranoside (CPRG)-based (Boehringer Mannheim) assay was performed. The cell extracts were incubated in a reaction buffer (0.9 M phosphate buffer [pH 7.4], 9 mM MgCl2, 11 mM ß-mercaptoethanol, 7 mM CPRG) until a red color developed and measured with an LP400 (Becton Dickinson) plate reader at 572 nm.

In data set [2] the test system is CA-sensitive AML cell lines. The arrangement: method as in PMID 16522087, PMID 17765550, PMID 26416749. Conditions: read-out: IC50, antileukemic activity; cited from earlier work.
Data set [3] concerns human umbilical vein endothelial cells (HUVECs). The arrangement: method as in PMID 16522087, PMID 17765550, PMID 26416749. Conditions: read-out: EC50, antiproliferative; cited from earlier work.
In a further data set the target is T1, intracellular Tat (Human immunodeficiency virus type 1 group M subtype B, UniProt P69697).
T1 construct: pTatC6H-1 (NIH AIDS Reagent Program) plasmid encoding C-terminal 6xHistidine Tat1-86 (HXB3, subtype B); made in house; host or cells: E. coli BL21 (plasmid pTatC6H-1, NIH AIDS Reagent Program)
T1 sequence (P69697 whole entry): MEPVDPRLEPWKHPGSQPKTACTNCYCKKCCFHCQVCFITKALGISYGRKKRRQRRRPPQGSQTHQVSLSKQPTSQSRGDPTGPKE
As to the kind of experiment: Steady state of recombinant Tat in HeLa-CD4-LTR-Luc cells (Western blot). The data set is classed as cell-based, HIV-1. Conditions: 6 hours with compound, MG132 10 μM. On the procedure:
FIG 5 dCA stabilizes Tat structure. (A) Trp fluorescence assays. (Left) Schematic of the assay. (Center) DMSO, dCA (7.5× Tat concentration) or raltegravir (Ralt.; 7.5× Tat concentration) was incubated with Tat. The fluorescence of the Trp^11 of Tat protein was measured at the indicated wavelengths. Acrylamide (250 mM) was used as a quenching control of Tat fluorescence. (Right) Peak absorbance (λmax) versus increasing fold ratios of compounds to Tat protein. Data are representative of n = 3 independent experiments. (B) DARTS assays. Tat was incubated with DMSO or dCA, at increasing concentrations, in the presence of increasing concentrations of proteinase K (PK). […] Data are representative of n = 2 independent experiments. (C) Steady state of Tat in the presence of dCA in vivo. HeLa-CD4-LTR-Luc cells were incubated with recombinant Tat and then washed and incubated with the indicated compounds for 6 hours. […] (Left) Western blot representative of n = 4 independent experiments. MG132 was used as a positive control of Tat protection from degradation, and raltegravir was used as a negative control. (Right) Densitometry of the Tat band normalized to the actin band. Results represent the mean ± SEM from n = 4 independent experiments. Statistical significance was determined using one-way ANOVA with post hoc Tukey’s test. ns, not significant; ***, P < 0.0001; **, P < 0.001.
Next, we determined the half-life of recombinant Tat in HeLa-CD4-LTR-Luc cells in the presence of dCA (Fig. 5C). We incubated recombinant Tat with cells for 4 hours, and after several washes to remove extracellular Tat protein, we incubated cells with DMSO, dCA, or raltegravir for an additional 6 hours. Western blotting with anti-His antibody was performed to reveal intracellular Tat. […]
Half-life of Tat in vivo. […] Total protein concentration was assessed by Bradford assay and Tat protein in each condition determined by western blot with an anti-His antibody at 1:1500 dilution (Thermofisher). […]

In another data set the target is T2, Pep B-TAR interaction (Human immunodeficiency virus type 1 group M subtype B, UniProt P20879).
T2 construct: Pep B is a peptide encompassing the basic domain of HIV Tat (^45ISYGRKKRRQRRRAP^59)
As to the kind of experiment: EMSA of Tat's basic peptide (Pep B) with TAR. Format: biochemical, HIV-1. Conditions: Tat basic peptide residues 45 to 59. The text has this:
FIG 6 dCA binding to Tat disrupts Tat-TAR interaction. (A) EMSA of full-length Tat with TAR in the presence of dCA. Raltegravir (Ralt.) and deleted bulge TAR (ΔTAR) were used as negative controls. Data are representative of n = 3 independent experiments. (B) EMSA of Tat’s basic domain with TAR in the presence of increasing concentrations of dCA to Tat’s basic peptide. Pep B is a peptide encompassing the basic domain of HIV Tat (^45ISYGRKKRRQRRRAP^59). Pep C (^69LSKQPASQPRGDPTG^83) and unlabeled or cold TAR (TARc) were used as negative controls. Neomycin, which binds to Tat and TAR, was used as a positive control. Ratios of compounds (or TARc) concentrations to peptide are shown. Data are representative of n = 3 independent experiments. […] Shown are ITC results from binding of dCA (left) or Tat peptide (right) to TAR at 25°C. […] For the lower plots, results were converted to molar heats and plotted against the molar ratio of dCA or peptide to RNA. Data are representative of n = 2 independent experiments. (D) Tat-TAR interaction blocked by dCA in HeLa-CD4-LTR-Luc cells in vivo. Cells transfected with Tat or Tat Mut (arginine residues mutated to alanine in Tat’s basic domain) were incubated with DMSO or the indicated compounds (25 nM). Forty-eight hours later, cells were either lysed to determine the luciferase activity or cross-linked for ChIP assays. Luciferase activity was determined relative to protein concentration (Bradford assay) (Fig. S9A). Western blotting was performed to verify the amount of Tat under each condition (Fig. S9B). ChIP of Tat was followed by qRT-PCR of TAR DNA. The results are presented as percentage of input. The mean ± SEM is represented. Data are representative of n = 3 independent experiments. Statistical significance was determined using one-way ANOVA with post hoc Tukey’s test with 3 technical replicates. ns, not significant; ***, P < 0.0001.
We also performed the same experiment with a peptide encompassing the basic domain of Tat (Pep B; residues 45 to 59) and dCA.
EMSA With full-length Tat: similar protocol was performed as in Das et al. (60). […]

In the case of `CC(=O)N(C)C1CC23CCC4(O2)C(=CCC2(C)C(c5ccc6ccncc6c5)=CCC24)C=C3C(O)C1O` (centres unmarked) [# 3], the CC50 at 72 h in data set [1] was 5600 nM. Moreover, the half-maximal inhibitory concentration (IC50) with NL4-3 strain was 37 ± 5.8 nM.
The matching figures for `CC12CC=C3C=C4C(O)C(O)C(N)CC45CCC3(O5)C1CC=C2c1ccc2ccncc2c1` (centres unmarked) [# 4]: 23100 ± 300 nM and 4 ± 0.5 nM.
With `CN(C)C1CC23CCC4(O2)C(=CCC2(C)C(c5ccc6cnncc6c5)=CCC24)C=C3C(O)C1O` (centres unmarked) [# 5], in data set [1], the CC50 at 72 h came out at 16400 nM. Also, the half-inhibitory concentration (IC50) with NL4-3 strain stood at 141 nM.
On the same counts, the results for `Cc1n[nH]c2cc(C3=CCC4C3(C)CC=C3C=C5C(O)C(O)C(N(C)C)CC56CCC34O6)ccc12` (centres unmarked) [# 6] are 12100 ± 800 nM and 67.5 ± 6.8 nM.
On the same counts, the results for `CN(C)C1CC23CCC4(O2)C(=CCC2(C)C(c5ccc6ccncc6c5)C(=O)CC42)C=C3C(O)C1O` (centres unmarked) [# 9] are more than 50000 nM and 0.5 ± 0.1 nM.
For the molecule `CN(C)[C@H]1C[C@@]23CC[C@@]4(O2)C(=CC[C@]2(C)[C@@H](c5ccc6ccncc6c5)CC[C@H]24)C=C3[C@@H](O)[C@@H]1O` [CA, cortistatin A], the IC50 in data set [2] is approximately 10 nM. In data set [3], the EC50 is 350 nM.
Turning to `CC(C)C[C@@H](C=O)NC(=O)[C@H](CC(C)C)NC(=O)[C@H](CC(C)C)NC(=O)OCc1ccccc1` [MG132] (Cbz-Leu-Leu-Leu-aldehyde), at intracellular Tat, the “percentage of remaining Tat” value worked out at 40%.
On to neomycin, for which, at Pep B-TAR interaction, the “inhibition of Pep B-TAR interaction (EMSA)” value was “inhibited the interaction of Pep B with TAR”.
